Entries after “also recorded” stand apart in the source; their conditions may differ.

What all share (assay type): cell-based
Test [1] concerns RIN-5AH cells. The experiment in a line: Whole cell patch clamp (current clamp and voltage clamp). As for the experimental part: For the purpose of investigation of membrane potential changes and membrane depolarization that triggers and activate voltage dependent calcium channels in beta cells, whole cell patch clamp studies were conducted with the compounds of the present invention. RIN-5AH cells were trypsinized and suspended in medium. Cells were transferred into the recording chamber and allowed to settle down before beginning a slow perfusion with the external buffer (138.0 mM; NaCl; 5.6 mM KCl; 11.1 mM Glucose; 1.2 mM; MgCl2; 2.6 mM CaCl2; 10.0 mM HEPES). Cells were sealed and patched by the application of a gentle negative pressure. Holding membrane potential was set up to -70mV for voltage clamp experiments. After patching the cells, at least 10s of base signal was recorded for both voltage clamp and current clamp measurements. External stimulation of cells was done by using Picospritzer II instrument (Parker) with 5psi for 30s with the desired concentrations (50uM and 500uM for compound 12 and 500uM for glibenclamide as control). The total recording time was set to 1-4 minutes.
In general terms: The patch-clamp technique gives a direct electrical read-out from membranes.

Test [2] relates to RIN-5AH insulinoma beta cell line. Briefly: Insulin secretion (insulin ELISA of supernatants). The note with it: for insulin secretion relative to a DMSO control, compared to previously reported quinoline compounds: 5 µM compound 12 vs 50 µM quinidine or chloroquine, 10 µM levofloxacin or gatifloxacin, Figure 1; for effect on insulin secretion: negative control quinoline compounds. As for the experimental part:
Culture medium and supplements were purchased from Life Technologies. The RIN-5AH insulinoma beta cell line was cultured in RPMI 1640 supplemented with 10% FBS, 2 mM glutamine. All culture media contained 1x penicillin-streptomycin. Cells were grown on 15 cm culture plates at 37°C under 5% CO2 in high humidity atmosphere.
To determine the insulin level from the supernatants insulin ELISA kits from Millipore or Mercodia were used. RIN-5AH cells were seeded in 96 well or 12 well plates and grown overnight. RIN-5AH cells never reached more than 80% confluency before treatment. Cells were washed once with PBS before treatment. Cells were treated in medium for 2 hours and with 5 µM of insulin secretagogue according to the present invention, if not otherwise indicated. After treatment 100ul of supernatant was taken. Samples were assayed immediately or stored at -20°C until measurement. Dilutions were made if necessary and ELISA was subsequently performed according to the user's manual. Insulin secretion was normalized to cell number by MTT assay or to total protein amount by BCA assay (ThermoFisher Scientific, 23225). Plates were read on BioTrek Elx800 absorbance reader at 450 nm.
RIN-5AH beta cells were treated with 5 µM compound 12 or 50 µM quinidine or chloroquine according to the above described protocol (Example 1).
For orientation: ELISA stands for enzyme-linked immunosorbent assay.

Test [3] concerns RIN-5AH cells. Briefly: Calcium influx by FACS analysis (Fluo-4 AM fluorescence). The conditions noted are these: extracellular Ca2+ present, compound 12 at 5 µM. As for the experimental part:
Calcium influx was measured by FACS analysis, similar to protocols previously described (Brewis, I. A., journal of andrology 21, 238-249, doi:10.1002/j.1939-4640.2000.tb02101.x (2000); Vines, A., Cytometry Part A 77A, 1091-1097, doi:10.1002/cyto.a.20974 (2010); Schepers, E., Journal of Immunological Methods 348, 74-82, doi:http://dx.doi.org/10.1016/j.jim.2009.07.002 (2009)).
RIN-5AH cells (30,000 cells per well) were plated in 12 well plates and incubated overnight at 37°C and 5% CO2. Cells were stained with Fluo-4 AM (molecular probes, F14201) by using a 3µM stock solution prepared in HBSS with Ca2+ and Mg2+ (HBSS++) and with addition of a final amount of 0.02% Pluronic-F127 (molecular probes, P6867). Cells were incubated with 600ul of the dye/well for 1h at 37°C, in 5% CO2. They were washed 2x with Ca2+ and Mg2+ free HBSS (HBSS--) (Gibco, 14170) before moving to the next step of the protocol (see below).
Cells were trypsinized for three minutes at 37°C and 5% CO2. The cell suspension was then diluted by adding 1ml HBSS-- / well and centrifuged for 3 minutes at 1200 RPM. Cells were resuspended in 1 mL of HBSS++ or HBSS-- before starting the measurement. Base fluorescent signal was recorded for 30 seconds followed by treatment with the various compounds by quickly adding the compounds to the FACS analysis tubes, while acquisition was not interrupted (gaps). […] Samples were measured continuously for the desired time and all measurements were completed within 40 minutes. Unstained cells and stained cells in external buffer without Ca2+ and Mg2+ (HBSS--) were used as negative controls for the treatments. Data were acquired on BD-FACSCalibur and the visualizations were prepared by FlowJo software.
For orientation: A flow cytometer gives signals particle by particle.

For `COc1cc(Nc2cc(C#N)nc3cc(F)ccc23)c(Cl)cc1Cl` [Compound 12, 4-(2,4-dichloro-5-methoxy-anilino)-7-fluoro-quinoline-2-carbonitrile], in test [1] (current clamp), the “time membrane potential is kept in depolarized state / returns to its initial value” is more than 240 s. Also, the depolarization rate result in test [1] (current clamp, 500 µM, Figure 3) is recorded as “dramatically increased”. For the same compound, the “shift in membrane potential in current clamp mode (CC)” value in test [1] (from -70mV, after puffs for 30s, Figures 3A and 3B) is -20 mV. For the same compound, the “onset of increase of inward current” value in test [1] (voltage clamp) is listed as “immediately”. The “maximal inward current versus GBA treated cells” value in test [1] (voltage clamp, 50 µM compound 12 vs GBA) is “more than 5 fold”. Also, the “difference of maximal inward ion current versus GBA” value in test [1] (voltage clamp, same concentrations of compound 12 and GBA (500 µM)) is “more than 10 fold”. Further, in test [1] (voltage clamp, Figure 4), the “duration of effect on inward current compared to GBA” value was “longer lasting effect”. The “time until inward current flow returned back to baseline” value in test [1] (voltage clamp, Figure 4) was 3 min. Besides, the “insulin secretion relative to a DMSO control, compared to previously reported quinoline compounds” value in test [2] was “more effective”; in test [2] (listed as compound 12), “significantly superior activity”. In test [2] (RIN-5AH cells, 5 µM, treated in medium for 2 hours, read-out: AV_INSULIN (percent increase in insulin secretion over a DMSO control)), the activation at 5 µM stood at 85%. The “divalent calcium cation influx (Fluo-4 AM fluorescence by FACS)” value (“divalent calcium cation influx” below) in test [3] (Figure 2) was “induced divalent calcium cation influx”; in test [3] (Figure 2, listed as compound 12), “induces divalent calcium cation influx; also recorded: induced Ca2+ influx”.

In the case of `COc1cc(Nc2cc(C#N)nc3cc(F)c(OCCCN4C(=O)c5ccccc5C4=O)cc23)c(Cl)cc1Cl` [Compound 63, 4-(2,4-dichloro-5-methoxy-anilino)-6-[3-(1,3-dioxoisoindolin-2-yl)propoxy]-7-fluoro-quinoline-2-carbonitrile], the “effect on insulin secretion” value in test [2] is “didn't show any effect”. Besides, in test [3] (Figure 2), the “divalent calcium cation influx” value is “did not show any increase”.

On to `COc1cc(Nc2ccnc3cc(OCc4ccccc4)c(OC)cc23)c(Cl)cc1Cl` [Compound 73, 7-benzyloxy-N-(2,4-dichloro-5-methoxy-phenyl)-6-methoxy-quinolin-4-amine], for which the “effect on insulin secretion” value in test [2] is reported as “didn't show any effect”. In addition, in test [3] (Figure 2), the “divalent calcium cation influx” value is recorded as “did not show any increase”.

Turning to `COc1ccc(Cl)cc1C(=O)NCCc1ccc(S(=O)(=O)NC(=O)NC2CCCCC2)cc1` [GBA, glibenclamide, reference compound], the “time membrane potential is kept in depolarized state / returns to its initial value” in test [1] (current clamp) was 90 s. In test [1] (voltage clamp), the “onset of increase of inward current” value was “small delayed response”. The “divalent calcium cation influx” value in test [3] (Figure 2) was “caused calcium influx, however, with a delayed response”.

The record behind these values is patent EP3246028A1, “QUINOLINE COMPOUNDS FOR INCREASING INSULINE RELEASE” (Max-Planck-Gesellschaft zur Förderung der Wissenschaften …, priority 2016, dated 2017).
